Structures are written as SMILES. Where two headings read alike, the source gives them in different places. Bounds are passed on as bounds.

This test has as its target ATR kinase (full-length ATR) (Homo sapiens (Human), UniProt Q13535). As to the kind of experiment: ATR inhibition assay (radioactive-phosphate incorporation). It is filed as biochemical. As to the method: Compounds were screened for their ability to inhibit ATR kinase using a radioactive-phosphate incorporation assay. Assays were carried out in a mixture of 50 mM Tris/HCl (pH 7.5), 10 mM MgCl2 and 1 mM DTT. Final substrate concentrations were 10 μM [γ-33P]ATP (3mCi 33P ATP/mmol ATP, Perkin Elmer) and 800 μM target peptide ([…]) (SEQ ID NO:1).
Assays were carried out at 25° C. in the presence of 5 nM full-length ATR. An assay stock buffer solution was prepared containing all of the reagents listed above, with the exception of ATP and the test compound of interest. 13.5 μL of the stock solution was placed in a 96 well plate followed by addition of 2 μL of DMSO stock containing serial dilutions of the test compound (typically starting from a final concentration of 15 μM with 3-fold serial dilutions) in duplicate (final DMSO concentration 7%). The plate was pre-incubated for 10 minutes at 25° C. and the reaction initiated by addition of 15 μL [γ-33P]ATP (final concentration 10 μM).
The reaction was stopped after […] by the addition of 30 μL 0.1M phosphoric acid containing 2 mM ATP. A multiscreen phosphocellulose filter 96-well plate (Millipore, Cat no. MAPHN0B50) was pretreated with 100 μL 0.2M phosphoric acid prior to the addition of […] of the stopped assay mixture. The plate was washed with 5×200 μL 0.2M phosphoric acid. After drying, 100 μL Optiphase ‘SuperMix’ liquid scintillation cocktail (Perkin Elmer) was added to the well prior to scintillation counting (1450 Microbeta Liquid Scintillation Counter, Wallac).
After removing mean background values for all of the data points, Ki(app) data were calculated from non-linear regression analysis of the initial rate data using the Prism software package (GraphPad Prism version 3.0cx for Macintosh, GraphPad Software, San Diego Calif., USA).

Where [1] appears, read: Ki(app), 5 nM full-length ATR, 10 μM ATP, 25° C.

ATR kinase (full-length ATR), sequence (Q13535 whole entry): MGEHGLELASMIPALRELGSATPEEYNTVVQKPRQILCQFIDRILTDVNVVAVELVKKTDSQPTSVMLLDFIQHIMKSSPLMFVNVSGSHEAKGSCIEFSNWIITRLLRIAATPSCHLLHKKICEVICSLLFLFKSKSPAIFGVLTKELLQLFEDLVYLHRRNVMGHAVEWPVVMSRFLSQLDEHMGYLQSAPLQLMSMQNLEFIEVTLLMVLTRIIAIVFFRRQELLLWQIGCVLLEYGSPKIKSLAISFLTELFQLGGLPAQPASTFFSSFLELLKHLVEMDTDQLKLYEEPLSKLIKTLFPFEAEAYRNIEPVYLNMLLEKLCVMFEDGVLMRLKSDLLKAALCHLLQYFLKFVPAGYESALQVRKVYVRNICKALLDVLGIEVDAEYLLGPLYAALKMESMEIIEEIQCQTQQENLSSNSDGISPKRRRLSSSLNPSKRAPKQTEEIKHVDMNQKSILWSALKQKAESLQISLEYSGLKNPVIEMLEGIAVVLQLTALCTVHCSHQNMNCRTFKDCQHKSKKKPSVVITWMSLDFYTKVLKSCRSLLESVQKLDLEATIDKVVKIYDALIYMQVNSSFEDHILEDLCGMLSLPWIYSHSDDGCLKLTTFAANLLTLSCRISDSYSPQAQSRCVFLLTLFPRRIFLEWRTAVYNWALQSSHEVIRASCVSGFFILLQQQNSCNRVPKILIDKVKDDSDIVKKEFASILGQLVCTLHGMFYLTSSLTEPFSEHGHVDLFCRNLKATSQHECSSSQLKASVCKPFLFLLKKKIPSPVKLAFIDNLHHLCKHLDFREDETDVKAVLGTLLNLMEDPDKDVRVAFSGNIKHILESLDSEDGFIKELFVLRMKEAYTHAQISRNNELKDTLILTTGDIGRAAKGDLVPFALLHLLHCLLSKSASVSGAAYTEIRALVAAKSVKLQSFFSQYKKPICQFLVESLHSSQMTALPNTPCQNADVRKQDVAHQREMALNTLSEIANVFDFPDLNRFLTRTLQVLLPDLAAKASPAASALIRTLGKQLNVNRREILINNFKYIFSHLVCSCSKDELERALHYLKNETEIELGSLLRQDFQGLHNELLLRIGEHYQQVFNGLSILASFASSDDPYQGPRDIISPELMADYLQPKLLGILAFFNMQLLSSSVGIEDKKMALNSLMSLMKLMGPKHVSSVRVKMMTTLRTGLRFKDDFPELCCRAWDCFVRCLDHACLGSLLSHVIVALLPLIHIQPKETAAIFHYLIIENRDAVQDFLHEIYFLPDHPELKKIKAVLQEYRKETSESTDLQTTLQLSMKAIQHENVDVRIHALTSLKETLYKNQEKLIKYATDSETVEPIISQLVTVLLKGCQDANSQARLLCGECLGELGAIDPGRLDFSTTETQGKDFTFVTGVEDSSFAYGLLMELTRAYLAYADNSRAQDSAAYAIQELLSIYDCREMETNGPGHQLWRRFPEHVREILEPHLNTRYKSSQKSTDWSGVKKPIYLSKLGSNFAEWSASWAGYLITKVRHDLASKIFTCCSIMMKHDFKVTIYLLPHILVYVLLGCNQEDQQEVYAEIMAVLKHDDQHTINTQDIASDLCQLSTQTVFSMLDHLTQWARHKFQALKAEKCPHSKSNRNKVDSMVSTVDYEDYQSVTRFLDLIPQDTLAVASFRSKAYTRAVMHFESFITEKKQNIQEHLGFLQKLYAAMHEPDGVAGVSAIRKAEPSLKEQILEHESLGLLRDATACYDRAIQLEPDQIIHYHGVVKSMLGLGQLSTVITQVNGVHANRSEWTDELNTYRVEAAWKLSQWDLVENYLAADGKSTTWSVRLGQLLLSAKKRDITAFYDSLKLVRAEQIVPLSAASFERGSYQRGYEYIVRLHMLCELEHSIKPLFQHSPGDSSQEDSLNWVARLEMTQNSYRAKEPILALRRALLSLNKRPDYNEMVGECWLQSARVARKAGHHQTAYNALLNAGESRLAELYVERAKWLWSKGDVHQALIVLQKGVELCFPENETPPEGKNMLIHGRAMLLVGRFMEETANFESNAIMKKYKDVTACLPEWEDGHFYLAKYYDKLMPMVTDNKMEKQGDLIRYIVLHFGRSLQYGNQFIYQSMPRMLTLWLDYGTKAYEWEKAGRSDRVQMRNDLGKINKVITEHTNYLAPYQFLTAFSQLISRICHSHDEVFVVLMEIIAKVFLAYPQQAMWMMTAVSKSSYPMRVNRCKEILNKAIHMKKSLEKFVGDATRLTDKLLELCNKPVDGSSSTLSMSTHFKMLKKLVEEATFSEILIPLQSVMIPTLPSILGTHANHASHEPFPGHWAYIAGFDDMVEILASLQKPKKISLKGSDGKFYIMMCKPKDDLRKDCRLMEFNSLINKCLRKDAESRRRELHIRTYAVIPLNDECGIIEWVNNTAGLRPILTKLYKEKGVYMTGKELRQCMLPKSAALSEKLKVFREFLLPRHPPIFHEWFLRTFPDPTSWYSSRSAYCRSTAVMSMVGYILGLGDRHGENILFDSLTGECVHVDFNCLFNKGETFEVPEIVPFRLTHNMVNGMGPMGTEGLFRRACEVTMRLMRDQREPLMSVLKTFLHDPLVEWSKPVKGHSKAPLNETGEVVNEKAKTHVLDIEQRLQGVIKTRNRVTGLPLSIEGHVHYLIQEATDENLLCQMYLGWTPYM

On to `CN1CC2CN(C(=O)C3CCN(c4c(F)cncc4NC(=O)c4c(N)nn5cc(F)cnc45)CC3)CC2C1` (centres unmarked) [I-G-18, 2-amino-6-fluoro-N-(5-fluoro-4-(4-(5-methyloctahydropyrrolo[3,4-c]pyrrole-2-carbonyl)piperidin-1-yl)pyridin-3-yl)pyrazolo[1,5-a]pyrimidine-3-carboxamide], for which the Ki was 0.01 to 1 µM. Take `CN1CCN(C(=O)[C@H]2CC[C@@H](Oc3ccncc3NC(=O)c3c(N)nn4cc(F)cnc34)CC2)CC1` [I-O-19, 2-amino-6-fluoro-N-(4-(((1s,4s)-4-(4-methylpiperazine-1-carbonyl)cyclohexyl)oxy)pyridin-3-yl)pyrazolo[1,5-a]pyrimidine-3-carboxamide]: the Ki under setting [1] is 0.01 to 1 µM. As for `Nc1nn2cc(F)cnc2c1C(=O)Nc1cncc(F)c1N1CCC(C(=O)N2CC(N3CCC3)C2)CC1` [I-G-49, N-(4-(4-([1,3′-biazetidine]-1′-carbonyl)piperidin-1-yl)-5-fluoropyridin-3-yl)-2-amino-6-fluoropyrazolo[1,5-a]pyrimidine-3-carboxamide], the Ki under setting [1] fell in the range of 0.01 to 1 µM. Same read-out and setting: next, `N#CC1(c2cnc3c(C(=O)Nc4cncc(F)c4N4CCN(C5COC5)CC4)c(N)nn3c2)CC1` [I-N-180, 2-amino-6-(1-cyanocyclopropyl)-N-(5-fluoro-4-(4-(oxetan-3-yl)piperazin-1-yl)pyridin-3-yl)pyrazolo[1,5-a]pyrimidine-3-carboxamide]: 0.01 to 1 µM. Take `CNCCc1cnn(-c2ccncc2NC(=O)c2c(N)nn3cc(F)cnc23)c1` [I-N-8, 2-amino-6-fluoro-N-(4-(4-(2-(methylamino)ethyl)-1H-pyrazol-1-yl)pyridin-3-yl)pyrazolo[1,5-a]pyrimidine-3-carboxamide]: the Ki lay within 1 to 5 µM. Take `Cc1nc(C)n(-c2ccncc2NC(=O)c2c(N)nn3cc(F)cnc23)n1` [I-N-218, 2-amino-N-(4-(3,5-dimethyl-1H-1,2,4-triazol-1-yl)pyridin-3-yl)-6-fluoropyrazolo[1,5-a]pyrimidine-3-carboxamide]: the Ki under setting [1] was 0.01 to 1 µM. `Nc1nn2cc(F)cnc2c1C(=O)Nc1cncc(C2CC2)c1N1CCN([C@@H]2CCOC2)CC1` [I-N-119, (R)-2-amino-N-(5-cyclopropyl-4-(4-(tetrahydrofuran-3-yl)piperazin-1-yl)pyridin-3-yl)-6-fluoropyrazolo[1,5-a]pyrimidine-3-carboxamide]: the Ki under setting [1] was 0.01 to 1 µM. The same measure, in the same setting: next, `Nc1nn2cc(F)cnc2c1C(=O)Nc1cncc(F)c1N1CCN(C(=O)C2CNCCO2)CC1` (centres unmarked) [I-N-172, 2-amino-6-fluoro-N-(5-fluoro-4-(4-(morpholine-2-carbonyl)piperazin-1-yl)pyridin-3-yl)pyrazolo[1,5-a]pyrimidine-3-carboxamide]: 0.01 to 1 µM; `Nc1nn2cc(F)cnc2c1C(=O)Nc1cncc(F)c1N1CCC(C(=O)NCCN2CCC2)CC1` [I-G-42, 2-amino-N-(4-(4-((2-(azetidin-1-yl)ethyl)carbamoyl)piperidin-1-yl)-5-fluoropyridin-3-yl)-6-fluoropyrazolo[1,5-a]pyrimidine-3-carboxamide]: 0.01 to 1 µM; `Cc1nccn1-c1ccncc1NC(=O)c1c(N)nn2cc(F)cnc12` [I-N-28, 2-amino-6-fluoro-N-(4-(2-methyl-1H-imidazol-1-yl)pyridin-3-yl)pyrazolo[1,5-a]pyrimidine-3-carboxamide]: 0.01 to 1 µM. Same read-out and setting: next, `Nc1nn2cc(F)cnc2c1C(=O)Nc1cncc(F)c1N1CCC(C(=O)N2CCN(C3CC3)CC2)CC1` [I-G-13, 2-amino-N-(4-(4-(4-cyclopropylpiperazine-1-carbonyl)piperidin-1-yl)-5-fluoropyridin-3-yl)-6-fluoropyrazolo[1,5-a]pyrimidine-3-carboxamide]: 0.01 to 1 µM.

Turning to `Nc1nn2cc(F)cnc2c1C(=O)Nc1cnccc1O[C@H]1Cc2nccn2C1` [I-O-16, (S)-2-amino-N-(4-((6,7-dihydro-5H-pyrrolo[1,2-a]imidazol-6-yl)oxy)pyridin-3-yl)-6-fluoropyrazolo[1,5-a]pyrimidine-3-carboxamide], the Ki under setting [1] fell in the range of 0.01 to 1 µM. Regarding `N#CCc1cnc2c(C(=O)Nc3cnccc3Oc3ccccc3)c(N)nn2c1` [I-O-25, 2-amino-6-(cyanomethyl)-N-(4-phenoxypyridin-3-yl)pyrazolo[1,5-a]pyrimidine-3-carboxamide], the Ki under setting [1] is less than 0.01 µM. On the same count and under the same terms, under `COc1ccncc1NC(=O)c1c(N)nn2cc(Cl)cnc12` [I-O-57, 2-amino-6-chloro-N-(4-methoxypyridin-3-yl)pyrazolo[1,5-a]pyrimidine-3-carboxamide] stands 0.01 to 1 µM.

Take `CN1CCN(C(=O)C2CCN(c3c(F)cncc3NC(=O)c3c(N)nn4cc(F)cnc34)C2)CC1` (centres unmarked) [I-N-191, 2-amino-6-fluoro-N-(5-fluoro-4-(3-(4-methylpiperazine-1-carbonyl)pyrrolidin-1-yl)pyridin-3-yl)pyrazolo[1,5-a]pyrimidine-3-carboxamide]: the Ki was 1 to 5 µM.

For `Nc1nn2cc(F)cnc2c1C(=O)Nc1cnccc1OC1CCN(C2COC2)CC1` [I-O-11, 2-amino-6-fluoro-N-(4-((1-(oxetan-3-yl)piperidin-4-yl)oxy)pyridin-3-yl)pyrazolo[1,5-a]pyrimidine-3-carboxamide], the Ki under setting [1] fell in the range of 0.01 to 1 µM. On the same count and under the same terms, under `Cc1nnc(N2CCN(c3ccncc3NC(=O)c3c(N)nn4cc(F)cnc34)CC2)o1` [I-N-256, 2-amino-6-fluoro-N-(4-(4-(5-methyl-1,3,4-oxadiazol-2-yl)piperazin-1-yl)pyridin-3-yl)pyrazolo[1,5-a]pyrimidine-3-carboxamide] stands 0.01 to 1 µM. For `N#CCc1cnc2c(C(=O)Nc3cnccc3OC3CN4CCC3CC4)c(N)nn2c1` (racemic) [I-O-22, (R,S)-2-amino-6-(cyanomethyl)-N-(4-(quinuclidin-3-yloxy)pyridin-3-yl)pyrazolo[1,5-a]pyrimidine-3-carboxamide], the Ki under setting [1] is 0.01 to 1 µM. Still for that read-out and setting: next, `CS(=O)(=O)c1ccc(-c2ccncc2NC(=O)c2c(N)nn3cc(F)cnc23)cc1` [I-C-61, 2-amino-6-fluoro-N-(4-(4-(methylsulfonyl)phenyl)pyridin-3-yl)pyrazolo[1,5-a]pyrimidine-3-carboxamide]: 0.01 to 1 µM; `COCCN1CCC[C@H](Oc2ccncc2NC(=O)c2c(N)nn3cc(Cl)cnc23)C1` [I-O-67, (S)-2-amino-6-chloro-N-(4-((1-(2-methoxyethyl)piperidin-3-yl)oxy)pyridin-3-yl)pyrazolo[1,5-a]pyrimidine-3-carboxamide]: 0.01 to 1 µM.

In the case of `Nc1nn2cc(F)cnc2c1C(=O)Nc1cncc(F)c1N1CCC(C(=O)N2CCN3CC[C@H]2C3)CC1` [I-G-70, N-(4-(4-((5S)-1,4-diazabicyclo[3.2.1]octane-4-carbonyl)piperidin-1-yl)-5-fluoropyridin-3-yl)-2-amino-6-fluoropyrazolo[1,5-a]pyrimidine-3-carboxamide], the Ki under setting [1] fell in the range of 0.01 to 1 µM.

Regarding `CN1CCOC2(CCN(c3c(F)cncc3NC(=O)c3c(N)nn4cc(F)cnc34)CC2)C1` [I-N-272, 2-amino-6-fluoro-N-(5-fluoro-4-(4-methyl-1-oxa-4,9-diazaspiro[5.5]undecan-9-yl)pyridin-3-yl)pyrazolo[1,5-a]pyrimidine-3-carboxamide], under setting [1], the Ki is 0.01 to 1 µM. Same read-out and setting: under `Nc1nn2cc(F)cnc2c1C(=O)Nc1cnccc1N1CCC(C(=O)N2CCOCC2)CC1` [I-G-85, 2-amino-6-fluoro-N-(4-(4-(morpholine-4-carbonyl)piperidin-1-yl)pyridin-3-yl)pyrazolo[1,5-a]pyrimidine-3-carboxamide] stands 0.01 to 1 µM.

The values above are taken from patent US10392391B2 (Vertex Pharmaceuticals Incorporated, priority 2012, dated 2019).
